ChEMBL document CHEMBL4813945, “Discovery and development of novel pyrimidine and pyrazolo/thieno-fused pyrimidine derivatives as potent and orally active inducible nitric oxide synthase dimerization inhibitor with efficacy for arthritis” (Eur J Med Chem, 2021)
Active and inactive are the calls of the source. The rule behind the calls is not given here.

Tests used:
Rattus norvegicus [1] = test: Antiinflammatory activity in complete freund's adjuvant-induced IG dosed male Sprague-Dawley rat model of arthritis assessed as decrease in IL-1beta level in serum after 4 weeks by ELISA; format: functional, organism-based; details: dose 40-80 mg/kg
Cytochrome P450 2C19 = Cytochrome P450 2C19 (Homo sapiens, UniProt P33261); test: Inhibition of CYP2C19 in human liver microsomes using Mephenytoin as substrate measured after 20 mins by LC-MS/MS analysis; format: ADME
[2] = Cmax in Sprague-Dawley rat at 10 mg/kg, po measured after 0.25 to 24 hrs by LC-MS/MS analysis; format: ADME, organism-based; set-up: route oral, time lower 0.25 hrs, dose 10 mg/kg, time upper 24 hrs; details: in vivo
[3] = Subacute toxicity in rat assessed as fur wrinkles at 100 to 500 mg/kg, IG administered every other day for 14 days and measured every 2 days; format: organism-based; details: in vivo, po, 336 h, dose 100-500 mg/kg, time 14 day
RAW264.7 [4] = test: Antiinflammatory activity against mouse RAW264.7 cells assessed as inhibition of LPS-induced NO production at 10 uM preincubated for 1 hrs followed by LPS stimulation and measured after 24 hrs by Griess assay relative to control; format: functional; details: time 25 hrs
[5] = Volume of distribution at steady state in Sprague-Dawley rat at 1 mg/kg, iv measured after 0.08 to 24 hrs by LC-MS/MS analysis; format: ADME, organism-based; details: in vivo, time 0.08-24 hrs, read-out: Vdss
Cytochrome P450 2C9 = Cytochrome P450 2C9 (Homo sapiens, UniProt P11712); test: Inhibition of CYP2C9 in human liver microsomes using Diclofenac as substrate measured after 20 mins by LC-MS/MS analysis; format: ADME
Cytochrome P450 1A2 = molecular target: T1, Cytochrome P450 1A2 (Homo sapiens, UniProt P05177); test: Inhibition of CYP1A2 in human liver microsomes using Phenacetin as substrate measured after 20 mins by LC-MS/MS analysis; format: ADME
T1 sequence (P05177 whole entry): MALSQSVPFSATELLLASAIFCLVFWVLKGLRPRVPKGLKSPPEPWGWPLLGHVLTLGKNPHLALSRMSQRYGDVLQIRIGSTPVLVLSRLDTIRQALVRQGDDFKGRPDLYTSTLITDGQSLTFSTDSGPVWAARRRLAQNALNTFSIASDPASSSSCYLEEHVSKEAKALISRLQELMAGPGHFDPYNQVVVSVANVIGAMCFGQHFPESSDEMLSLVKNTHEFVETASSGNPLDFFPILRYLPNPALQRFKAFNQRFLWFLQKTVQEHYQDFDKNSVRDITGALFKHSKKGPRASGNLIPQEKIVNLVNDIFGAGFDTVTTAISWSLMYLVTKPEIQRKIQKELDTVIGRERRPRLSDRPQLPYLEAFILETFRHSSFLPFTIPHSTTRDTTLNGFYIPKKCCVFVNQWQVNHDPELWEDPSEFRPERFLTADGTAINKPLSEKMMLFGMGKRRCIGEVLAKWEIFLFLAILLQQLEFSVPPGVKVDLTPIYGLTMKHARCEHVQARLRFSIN

[6] = molecular target: T2, Nitric oxide synthase, inducible (Mus musculus, UniProt P29477); test: Inhibition of LPS induced NO-dependent iNOS activity in mouse RAW 264.7 cells preincubated for 1 hrs followed by LPS stimulation and measured after 24 hrs by Griess reagent based assay; format: cell-based, RAW264.7
T2 sequence (P29477 whole entry): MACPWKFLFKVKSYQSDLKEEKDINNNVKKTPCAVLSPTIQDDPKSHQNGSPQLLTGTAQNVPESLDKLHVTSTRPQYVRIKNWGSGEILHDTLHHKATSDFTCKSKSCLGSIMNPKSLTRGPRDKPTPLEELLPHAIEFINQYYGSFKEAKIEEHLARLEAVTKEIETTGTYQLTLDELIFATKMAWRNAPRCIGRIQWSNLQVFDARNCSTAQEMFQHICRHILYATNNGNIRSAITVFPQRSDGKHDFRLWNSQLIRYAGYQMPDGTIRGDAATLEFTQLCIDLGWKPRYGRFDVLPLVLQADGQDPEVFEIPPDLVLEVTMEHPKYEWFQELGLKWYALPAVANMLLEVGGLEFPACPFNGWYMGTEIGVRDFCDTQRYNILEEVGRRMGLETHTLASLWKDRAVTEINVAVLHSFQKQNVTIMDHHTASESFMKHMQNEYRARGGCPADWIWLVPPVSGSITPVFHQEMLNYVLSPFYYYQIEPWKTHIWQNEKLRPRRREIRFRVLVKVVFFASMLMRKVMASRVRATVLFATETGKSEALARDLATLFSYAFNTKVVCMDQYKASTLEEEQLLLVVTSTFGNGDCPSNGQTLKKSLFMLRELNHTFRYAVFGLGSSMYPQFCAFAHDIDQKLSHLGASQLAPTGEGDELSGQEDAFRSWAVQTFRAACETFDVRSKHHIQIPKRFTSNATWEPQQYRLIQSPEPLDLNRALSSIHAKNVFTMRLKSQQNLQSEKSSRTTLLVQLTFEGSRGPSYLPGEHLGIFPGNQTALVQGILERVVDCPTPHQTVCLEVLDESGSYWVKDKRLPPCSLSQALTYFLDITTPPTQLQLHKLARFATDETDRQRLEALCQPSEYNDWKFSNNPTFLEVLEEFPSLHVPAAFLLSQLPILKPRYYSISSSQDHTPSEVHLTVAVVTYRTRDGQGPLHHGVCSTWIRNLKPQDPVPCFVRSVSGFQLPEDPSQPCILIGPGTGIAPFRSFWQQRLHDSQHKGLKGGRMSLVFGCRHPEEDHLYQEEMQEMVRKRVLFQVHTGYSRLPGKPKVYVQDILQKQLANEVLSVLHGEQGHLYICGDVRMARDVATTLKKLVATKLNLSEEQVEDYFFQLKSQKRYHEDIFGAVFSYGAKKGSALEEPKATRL

Rattus norvegicus [7] = test: Antiinflammatory activity in complete freund's adjuvant-induced male Sprague-Dawley rat model of arthritis assessed as reduction in ankle joint swelling at 40 to 80 mg/kg, IG administered once daily for 2 to 4 weeks; format: functional, organism-based; details: dose 40-80 mg/kg, time 2-4 weeks
Rattus norvegicus [8] = test: Antiinflammatory activity in complete freund's adjuvant-induced IG dosed male Sprague-Dawley rat model of arthritis assessed as decrease in TNF-alpha level in serum after 4 weeks by ELISA; format: functional, organism-based; details: dose 40-80 mg/kg
[9] = Metabolic stability in rat hepatocytes assessed as parent compound remaining after 120 mins by LC-MS/MS analysis; format: ADME, cell-based, Hepatocyte; details: read-out: Stabilty
RAW264.7 [10] = test: Inhibition of LPS-induced iNOS protein expression in mouse RAW264.7 cells at 0.5 to 2 uM preincubated for 1 hrs followed by LPS-stimulation and measured after 24 hrs by Western blot analysis; format: functional, cell-based; details: dose 0.5-2 µM, time 25.0 hrs
[11] = Acute toxicity in rat assessed as drowsiness at 2000 mg/kg, IG administered as single dose; format: organism-based; details: in vivo, po
[12] = molecular target: T3, Nitric oxide synthase, inducible (Mus musculus) (UniProt P29477); test: Inhibition of iNOS dimer formation in LPS-induced mouse RAW264.7 cells at 0.5 to 2 uM preincubated for 1 hrs followed by LPS-stimulation and measured after 24 hrs by Westernblot analysis; details: dose 0.5-2 µM, time 25.0 hrs
T3 sequence (whole entry): T2 sequence (P29477 whole entry)

[13] = AUC (0 to infinity) in Sprague-Dawley rat at 1 mg/kg, iv measured by LC-MS analysis; format: ADME, organism-based; set-up: time infinity, route intravenous, dose 1 mg/kg; details: in vivo
[14] = Acute toxicity in IG dosed rat assessed as maximum tolerated dose; format: organism-based; details: in vivo, po

Cytochrome P450 2C9, sequence (P11712 whole entry): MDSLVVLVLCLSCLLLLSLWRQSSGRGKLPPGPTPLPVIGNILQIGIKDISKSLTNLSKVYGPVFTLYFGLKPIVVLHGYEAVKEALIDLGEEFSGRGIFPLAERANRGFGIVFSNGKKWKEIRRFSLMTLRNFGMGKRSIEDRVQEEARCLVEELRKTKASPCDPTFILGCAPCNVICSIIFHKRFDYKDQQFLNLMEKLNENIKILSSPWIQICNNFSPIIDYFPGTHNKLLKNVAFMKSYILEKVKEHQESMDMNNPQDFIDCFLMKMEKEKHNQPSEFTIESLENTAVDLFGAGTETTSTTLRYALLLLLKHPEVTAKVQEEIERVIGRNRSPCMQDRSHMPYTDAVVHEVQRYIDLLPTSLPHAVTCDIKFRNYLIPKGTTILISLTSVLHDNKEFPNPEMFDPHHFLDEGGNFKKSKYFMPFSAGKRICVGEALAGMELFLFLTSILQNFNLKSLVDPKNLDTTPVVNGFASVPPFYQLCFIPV
Cytochrome P450 2C19, sequence (P33261 whole entry): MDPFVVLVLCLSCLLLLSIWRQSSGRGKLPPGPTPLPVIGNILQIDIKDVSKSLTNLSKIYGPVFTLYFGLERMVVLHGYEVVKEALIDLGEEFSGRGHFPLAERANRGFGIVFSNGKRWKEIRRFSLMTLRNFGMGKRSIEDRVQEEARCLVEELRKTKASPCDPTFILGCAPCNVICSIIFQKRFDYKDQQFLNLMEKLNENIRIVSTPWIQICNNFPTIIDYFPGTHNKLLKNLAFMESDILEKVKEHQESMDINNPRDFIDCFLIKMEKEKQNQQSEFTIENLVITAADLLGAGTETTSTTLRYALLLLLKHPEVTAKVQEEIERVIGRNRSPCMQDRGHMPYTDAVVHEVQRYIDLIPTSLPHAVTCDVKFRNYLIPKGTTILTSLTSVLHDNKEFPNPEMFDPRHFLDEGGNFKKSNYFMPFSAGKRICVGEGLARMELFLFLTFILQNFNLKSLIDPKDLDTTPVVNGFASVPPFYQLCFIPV

COc1cc(/C=C/c2nc(NCc3ccc(C)cc3)c3sccc3n2)cc(OC)c1OC
Activity (Rattus norvegicus [1]): Dose-Dependent Effect
IC50 (Cytochrome P450 2C19): 7.76 µM
Cmax [2]: 131 ng/mL
Activity [3]: Non-Toxic
inhibition at 10 µM (RAW264.7 [4]): 98.3%
Vd [5]: 11.3 L/kg
IC50 (Cytochrome P450 2C9): 8.91 µM
IC50 (Cytochrome P450 1A2): 42.2 µM
IC50 [6]: 0.96 µM
Activity (Rattus norvegicus [7]): Active
Activity (Rattus norvegicus [8]): Dose-Dependent Effect
remaining at 2 h [9]: 22.2%
inhibition (RAW264.7 [10]): inactive
Activity [11]: Non-Toxic
inhibition [12]: Active
AUC(0-inf) [13]: 401 ng·h/mL
MTD [14]: 2000 mg/kg
